Patent US20180140679A1, “MODULATION OF AXL RECEPTOR ACTIVITY IN COMBINATION WITH CYTOREDUCTIVE THERAPY” (THE BOARD OF TRUSTEES OF THE LELAND STANFORD JUNIOR …, priority 2016, published 2018)

Columns and labels:
[1] = tested on: LM-P orthotopic pancreatic cancer; experiment: LM-P orthotopic pancreatic cancer model; conditions: immunohistochemistry
Description: LMP cells derived from the KRAS/p53 metastatic mouse model were implanted subcutaneously into the flanks of mice and allowed to grow until they reached ˜500 mm^3 in size.
To establish orthotopic tumors, mice harboring subcutaneous tumors were sacrificed and tumors were isolated and cut into small fragments. Laparotomies were then performed and a tumor fragment was secured to the tail of the pancreas.
All procedures involving animals and their care and use were approved by the Institutional Animal Care and Usage Committee of Stanford University. For all in vivo studies, six week old, female nude (nu/nu) mice (Jackson Laboratory, Bar Harbor, Me.) were used. In all studies, animals displaying signs of morbidity were removed from the study immediately. […] Treatment was initiated four days post-inoculation for both studies. […] BGB324 (Selleckchem LLC, Houston, Tex.) and Foretinib (MedChem, Monmouth Junction, N.J.). Small molecules were administered twice daily via oral gavage. […] The orthotropic LM-P pancreatic adenocarcinoma model (a gift from Dr. Edgar Engleman at Stanford University, Stanford, Calif.) was established as previously described. Briefly, 1×10^6 cells were injected subcutaneously into the flanks of nude mice and grown for 2-3 weeks until they reached 500 mm^3. […]

[2] = tested on: 4T1 luciferase cells; format: in vivo
Excerpt: In this model, cells orthotopically implanted in the mammary fat pad generate primary masses that metastasize to the lungs.
Comparison of MYD1-72 Fc with clinical Axl. TKIs There are currently no FDA approved drugs targeting Axl, though several small molecule kinase inhibitors are undergoing clinical trials. BerGenBio's BGB324 (previously Rigel's R428) is the most advanced of these compounds, and the first to be developed prospectively as an Axl inhibitor. […] Furthermore, since TKI's and biologics are fundamentally very different, as are their mechanisms of action, a direct comparison would provide valuable insights into the potential of distinct therapeutic intervention strategies. […] Cells were implanted orthotopically in the mammary fat pad, and primary tumors were allowed to establish prior to treatment. […] This dose for the TKIs was chosen as significant activity has been previously reported at equivalent concentrations.
(§1) Treatment was initiated four days post-surgery.

[3] = tested on: skov3.ip; experiment: skov3.ip intraperitoneal ovarian cancer model; format: in vivo, mouse xenograft; conditions: MYD1-72 Fc 1 mg/kg daily, doxorubicin 2 mg/kg twice weekly, three weeks
Excerpt: (§2) At this time, several mice were sacrificed at random to ensure engraftment of diffuse metastatic disease, a hallmark of the human condition. […] After three weeks of treatment, mice were sacrificed and tumor burden was quantified both by counting the number of visible lesions, as well as excising and weighing all diseased tissue.
as §1

[4] = tested on: ATM, ATR, CHK1, CHK2 and RPA32 in ovarian cancer cells; experiment: Western blot of DNA damage response components in ovarian cancer cells; format: cell-based; conditions: low serum (0.1% FBS)
Excerpt: (§3) To further understand this relationship, we performed a reverse phase protein array (RPPA) on shAxl cell lines and wild-type cell lines treated with MYD1-72 Fc. […] In addition, we performed western blot analysis to examine expression levels of classical DNA damage response components, including total and phosphorylated ATM, ATR, CHK1, CHK2 and RPA32 (FIG. 5B) at four time points post MYD1-72 treatment.
(§4) Cell lysates subjected to sodium dodecyl sulfate polyacrylamide gel electrophoresis followed by transfer to nitrocellulose membrane. The membranes were then probed with primary antibodies against total Axl (AF154, R&D Systems, INC., Minneapolis, Minn.), phospho-Axl (T702; #5724, CST, Danvers, Mass.), total Akt (#4691 CST, Danvers, Mass.), phosphor-Akt (#4060, CST, Danvers, Mass.), anti-MERTK (#ab52968, Abcam, Cambridge, Mass.), phospho-MERTK (#ab14921 Abcam, Cambridge, Mass.), anti-Tyro3 (#5585, CST, Danvers, Mass.), phospho-Tyro3 (#orb186274, Biorbyt LLC, Berkely, Calif.), Bcl-2 Family Antibody Sampler Kit (#9934, CST, Danvers, Mass.), anti-Chk2 (#sc-5278, Santa Cruz Biotech, INC., Santa Cruz, Calif.), anti-XRCC1 (#2735, CST, Danvers, Mass.), anti-γH2AX (Merck Millipore #05636, Darmstadt, Germany), anti-phospho-ATM (#ab81292, Abcam, Cambridge, Mass.), anti-ATM (#ab78, Abcam, Cambridge, Mass.), anti phospho-ATR (#2853, CST, Danvers, Mass.), anti-ATR (#2790, CST, Danvers, Mass.), anti-Phospho Chk1 (#12302, CST, Danvers, Mass.), anti-Phospho Chk2 (#2197, CST, Danvers, Mass.) and anti-RPA32 (#2208, CST, Danvers, Mass.) at 4° C. overnight. The blots were then washed and probed with HRP conjugated anti-goat (#sc-2020, Santa Cruz Biotech, INC., Santa Cruz, Calif.), or HRP conjugated anti-rabbit (#A16110, Thermo Fisher Scientific, Walthan, Mass.) as appropriate. The blots were developed with Bio-Rad Western C developing reagent (#170-5060 Bio-Rad, Hercules, Calif.) and visualized with Chemidoc digital imager (#1708280, Bio-Rad, Hercules, Calif.).

[5] = tested on: ovarian cancer cells; experiment: Immunofluorescence of DNA damage foci in ovarian cancer cells; format: cell-based
Description: (§5) 10,000 cells were plated in each well of glass chamber slide and allowed to attach overnight. […] Cells were then washed with PBS and fixed with 4% paraformaldehyde, lysed for 10 minutes and blocked with a 2% BSA and 0.1% PBS-Triton-X solution for 1 hour. After washes in PBS-Triton-X, cells were incubated with mouse anti-[…]H2AX, (#05-636, Merck Millipore, Darmstadt, Germany); rabbit anti-RAD51, (#PC130-100 UL Merck Millipore, Darmstadt, Germany); rabbit anti-53BP1, (# ab36823, Abcam, Cambridge, Mass.) overnight in a humidified chamber at 4 degrees. Cells were washed with PBS and incubated in secondary antibody anti-rabbit FITC (#65-6111 Thermo Fisher Scientific, Walthan, Mass. or anti-mouse FITC, (#62-6511, Thermo Fisher Scientific, Walthan, Mass.) for 1 hour at 37 degrees and counterstained with Prolong Mounting medium with DAPI. Positive foci intensity were calculated using imagine software Metamorph. EdU (5-ethynyl-2′-deoxyuridine) labeling and co-staining were carried out according to the manufacturer's instructions (#C10637, Thermo Fisher Scientific, Walthan, Mass.). γH2AX staining was performed as described above.
(§6) Cells were visualized using a Leica DM6000 B microscope with Leica Application Suite X software (Wetzlar, Germany). EdU was used at a concentration of 10 μM. EdU labeling was carried out for 1 hour in all cases, for conditions including drug treatments EdU was added during the last hour of treatment. Experiments were carried out in triplicate. Quantification of staining: Positive γH2AX staining refers to cells with over eight foci and pan-nuclear staining. For hydroxyurea (Hu) treated groups, γH2AX positive cells refers to cells where a pan-nuclear staining pattern (typically associated with replication stress) was observed.

[6] = tested on: OVCAR8; experiment: OVCAR8 intraperitoneal ovarian cancer model; format: in vivo, mouse; conditions: MYD1-72 Fc 1 mg/kg daily, doxorubicin 2 mg/kg twice weekly, three weeks
Excerpt: as §2, §1

[7] = tested on: ovarian cancer cells; experiment: EdU labeling and γH2AX co-staining; format: cell-based
Description: as §5, §6

[8] = tested on: wild-type cell lines; experiment: Reverse phase protein array (RPPA); format: cell-based; conditions: continuously for seven days in low serum (1% FBS)
Description: as §3
The RPPA was performed by MD Anderson as described.

[9] = tested on: Axl and FLT3 phosphorylation in AML cells; experiment: Western blot of Axl and FLT3 phosphorylation in AML cells; format: cell-based, human
Excerpt: as §4

[10] = tested on: phosphorylation of Axl, Mer, Tyro3, and downstream Akt signaling in OVCAR8 cells; experiment: Western blot of TAM receptor and Akt phosphorylation in OVCAR8 cells; format: cell-based, human
Excerpt: as §4

[11] = molecular target: T1, mouse Gas6 (Mus musculus, UniProt Q61592); experiment: Kinetic Exclusion Assay (KinExA), Gas6-Axl binding, mouse Gas6
T1 sequence (Q61592 28-674): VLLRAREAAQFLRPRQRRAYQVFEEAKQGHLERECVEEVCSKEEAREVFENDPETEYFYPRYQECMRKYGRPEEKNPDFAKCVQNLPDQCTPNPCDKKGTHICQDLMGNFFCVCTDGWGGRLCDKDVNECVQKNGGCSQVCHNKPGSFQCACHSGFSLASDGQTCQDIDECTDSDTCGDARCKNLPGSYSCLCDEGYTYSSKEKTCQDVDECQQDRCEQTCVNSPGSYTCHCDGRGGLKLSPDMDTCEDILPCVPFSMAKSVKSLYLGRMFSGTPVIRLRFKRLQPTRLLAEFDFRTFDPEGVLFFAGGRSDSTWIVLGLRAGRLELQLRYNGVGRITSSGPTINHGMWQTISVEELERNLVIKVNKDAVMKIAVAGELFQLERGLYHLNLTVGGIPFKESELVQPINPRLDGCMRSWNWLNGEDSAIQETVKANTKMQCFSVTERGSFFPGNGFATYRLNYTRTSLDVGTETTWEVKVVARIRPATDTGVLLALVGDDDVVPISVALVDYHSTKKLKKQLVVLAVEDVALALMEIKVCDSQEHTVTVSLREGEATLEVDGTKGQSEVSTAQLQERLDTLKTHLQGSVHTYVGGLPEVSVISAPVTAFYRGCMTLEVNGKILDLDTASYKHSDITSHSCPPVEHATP
Description: (§7) Equilibrium binding and association rate constants for all Gas6-Axl interactions were measured on a KinExA3200 instrument (Sapidyne Instruments Inc. Boise, Id.) as previously described. For equilibrium binding studies, three independent titrations were completed for each Axl Ig1 or Axl Fc fusion unless otherwise noted. […] After the appropriate incubation time, reactions were flowed over MYD1 Fc coated beads and captured free Gas6 was probed using an anti-6×HIS Dylight 649 antibody (#200-343-382, Rockland Immunochemicals Inc., Pottstown, Pa.). Each sample was measured twice and data from the three independent equilibrium binding experiments were globally analyzed using n-curve analysis in the KinExA Pro 3.6.2 software (Sapidyne Instruments Inc. Boise, Id.) to obtain the Kd value. To analyze the association rate of the interactions, the direct inject method was used. For these experiments, 1 μM Axl was serially diluted 1:2.5, and equal volumes of each Axl sample and 500 nM Gas6 were briefly mixed and flowed over the capture beads. Free Gas6 was detected as described and the data was fit using the KinExA Pro 3.6.2 software to obtain the association rate (kon) of the interaction. The dissociation rate (koff) was calculated as the product of the Kd and the kon.

[12] = molecular target: T2, human Gas6 (Homo sapiens, UniProt Q14393); experiment: Kinetic Exclusion Assay (KinExA), Gas6-Axl binding, human Gas6
T2 sequence (Q14393 31-678): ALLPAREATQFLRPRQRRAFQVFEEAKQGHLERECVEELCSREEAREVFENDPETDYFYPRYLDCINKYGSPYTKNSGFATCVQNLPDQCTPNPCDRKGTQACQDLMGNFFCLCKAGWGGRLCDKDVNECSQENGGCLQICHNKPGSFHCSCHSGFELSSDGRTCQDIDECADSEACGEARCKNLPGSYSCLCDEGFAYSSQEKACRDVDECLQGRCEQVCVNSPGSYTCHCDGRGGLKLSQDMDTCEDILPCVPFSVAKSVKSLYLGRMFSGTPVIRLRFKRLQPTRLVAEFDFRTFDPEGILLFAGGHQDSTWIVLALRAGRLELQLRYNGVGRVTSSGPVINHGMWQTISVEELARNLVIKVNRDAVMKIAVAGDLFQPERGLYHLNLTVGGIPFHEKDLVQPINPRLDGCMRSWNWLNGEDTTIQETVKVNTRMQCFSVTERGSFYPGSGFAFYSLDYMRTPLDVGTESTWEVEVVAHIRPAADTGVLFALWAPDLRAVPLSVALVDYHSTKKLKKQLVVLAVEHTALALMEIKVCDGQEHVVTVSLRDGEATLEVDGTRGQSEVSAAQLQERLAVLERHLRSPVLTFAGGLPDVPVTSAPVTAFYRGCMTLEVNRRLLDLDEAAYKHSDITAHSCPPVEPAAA
Description: as §7

In the case of “MYD1-72 Fc: Fc fusion of the second generation high-affinity Axl decoy receptor MYD1-72 (Gly32Ser, Ala72Val, Asp87Gly, Val92Ala, Gly127Arg)”, the “γH2AX staining (DNA damage) in primary tumor” value [1] is reported as “small effect on DNA damage”, the lung metastatic disease ([2]; 0.5 mg/kg iv twice a week, three weeks) is reported as “significantly less metastatic disease than those treated with MYD1 Fc” and the “reduction in lung metastases compared to vehicle treated mice” value ([2]; MYD1-72 Fc 1 mg/kg daily, TKIs 12.5 mg/kg twice daily, ex vivo bioluminescent imaging) is reported as 71%. The “size of primary tumors” value ([2]; MYD1-72 Fc 1 mg/kg daily, TKIs 12.5 mg/kg twice daily, three weeks, vs control) was “significantly reduced the size of primary tumors”, the “γH2AX positive cells in primary tumor” value ([2]; immunohistochemistry) was “significantly more γH2AX positive cells compared to all other treatment groups” and the “decrease in tumor burden (by weight) vs controls” value [3] was 51%. For the same molecule, the phospho-RPA32 level [4] was “Elevated phospho-RPA32 level”, the “phospho-ATM and phospho-ATR” value ([4]; four time points) was “significant induction of phospho-ATM and phospho-ATR at early time points” and the “phosphorylation of CHK1 and CHK2” value ([4]; four time points) was “increased phosphorylation of both CHK1 and CHK2”. The γH2AX foci ([5]; complete media, 0.1 μg or 10 μg) was “showed no changes across treatments”, the “53BP1 and RAD51 foci” value ([5]; serum-limited conditions) was “increased the numbers of both 53BP1 and RAD51 foci” and the “number of γH2AX foci” value ([5]; serum-limited conditions, vs untreated controls) was “significant increase in the number of γH2AX foci”. The “reduction of tumor burden” value [6] was 95%, the “γH2AX positive cells in combination with hydroxyurea” value ([7]; hydroxyurea in the presence and absence of MYD1-72 Fc) was “no additive effect was observed” and the “non-S phase cells (EdU negative) positive for γH2AX” value ([7]; treated group) was 7%. For the same molecule, the “γH2AX positive cells that were also in S phase/EdU positive” value ([7]; treated group) was 85%, the “XRCC1/Chk2 and BAX/BID expression” value [8] was “highly upregulated” and the “Axl and FLT3 phosphorylation” value [9] was “inhibited Axl and FLT3 phosphorylation”. The “pAxl and pAkt levels” value [10] was “significantly reduced pAxl and pAkt levels” and the “pMer and pTyro3 levels” value [10] was “pMer and pTyro3 remained relatively unchanged”.

B1: MYD1 Ig1: first generation high affinity Axl Ig1 variant containing four mutations that conferred improved binding to Gas6 (protein)
chain: APRGTQAEESPFVSNPGNITGARGLTGTLRCQLQVQGEPPEVHWLRDGQILELADSTQTQVPLGEDEQGDWIVASQLRITSLQLSDTGQYQCLVFLGHQTFVSQPGYVRLEGLP
modifications: left off: small tags and cut ends
In the case of B1, the “binding to mouse Gas6” value [11] is reported as “no increase in binding to mouse Gas6”, the Kd ([12]; Axl Ig1 variants, read-out: Kd hGas6) is reported as 2.7 pM and the koff ([12]; calculated as the product of the Kd and the kon) is reported as 4.0 10^−5 s^−1. For the same molecule, the kon ([12]; direct inject method) was 1.6 10^7 M^−1 s^−1.
